US20080058399A1, “Pharmaceutical Compositions” (ASTRAZENECA AB, priority 2006, published 2008)
Where two headings read alike, the source gives them in different places.

Tests used:
[1] = cited from earlier work
[2] = Bioavailability in rats after per-oral administration; conditions: rat, in vivo, read-out: Relative bioavailability
[3] = Dissolution study, USP dissolution apparatus II; format: physicochemical; conditions: 500 ml 0.2% polysorbate 20 in 0.05 M phosphate buffer pH 6.5, paddle 75 rpm; 8 mg c.c. added except tablets as footnoted
Method: The medium used for dissolution studies was 500 ml of 0.2% polysorbate 20 in 0.05 M phosphate buffer pH 6.5 with a paddle speed of 75 rpm (USP dissolution apparatus II). In all dissolution tests, 8 mg of candesartan cilexetil was added to the medium (except where other is stated). After extraction with 60% (v/v) acetonitrile in water (filter pore size 0.45 μm), the amount of candesartan cilexetil was determined by liquid chromatography and UV-detection at 254 nm.

In the case of CCOc1nc2cccc(C(=O)OC(C)OC(=O)OC3CCCCC3)c2n1Cc1ccc(-c2ccccc2-c2nnn[nH]2)cc1 (stereo not shown) [c.c., candesartan cilexetil], the Solubility in water [1] is listed as < 0.05 µg/mL, the bioavailability ([2]; given as a suspension) is listed as 19% and the bioavailability ([2]; given in solution) is listed as 50%. For the same molecule, the “Drug dissolved after 5 minutes” value [3] was 24, the “Drug dissolved after 10 minutes” value [3] was 43 and the “Drug dissolved after 15 minutes” value [3] was 54. The “Drug dissolved after 20 minutes” value [3] was 61.
